Series [1] concerns plasmid pTG11236. In words: Electrophoretic analysis of nanoparticles of DNA (agarose gel, ethidium bromide). The series is classed as binding. The conditions noted are these: for accessibility of the DNA at the intercalation by ethidium bromide: N/P ratio=5, plasmid pTG11236. As for the experimental part:
The plasmid pTG11236 (pCMV-SV40-luciferase-SV40 pA), used in the preparation of DNA complexes and for transfection tests is a plasmid with 5739 pairs of bases. The quantities of compounds used are calculated to obtain a DNA concentration of 0.1 mg·mL^−1 (303 μM in phosphate equivalent) and the desired Nitrogen/Phosphate (N/P) ratios. Tests for values of N/P=5, 10, 30 and 50 were carried out both for compound no. 8 and for compound no. 16. As a reference transfection formulation (positive control), we used polyplexes formulated with the same plasmid and the polycationic polymer polyethyleneimine (branched PEI, 25 kDa), and naked DNA as a negative control.
For the preparation of the complexes, the DNA is diluted in HEPES (20 mM, pH 7.4) until a final concentration of 303 μM in phosphate equivalent, then the quantity of compound no. 8 or no. 16 necessary, obtained from a stock solution of 20 mg·mL^−1 in DMSO-water 1:2 (v/v) is added in order to obtain the desired N/P ratio. For the PEI, a 0.1M stock solution in water is used. The mixtures are vortexed for 10 sec and used in the characterisation and for the transfection tests, as described below.
10 μl of each formulation of complexes prepared as mentioned above are diluted once in the loaded buffer (glycerol+bromophenol blue+Tris-acetate-EDTA or TAE). 1 μl of this solution are deposited on a gel with 8% agarose. The rest of the sample is diluted once with a decomplexing solution with 8% sodium dodecyl sulfate (SDS) in TAE, then 10 μl are also deposited on a gel. The electrophoresis is carried out for […] at 50V. The gel is then developed with ethidium bromide (Sigma) in TAE ([…] of a solution of ethidium bromide with a concentration of 10 mg·mL^−1 in 200 mL of TAE). The DNA is also visualised and photographed with an UV transilluminator. FIGS. 2 and 3 are photos of electrophoretic analyses, carried out on agarose gel in the presence of ethidium bromide, of DNA complexes/nanoparticles obtained with compound no. 8 according to an N/P ratio of 5, 10, 30 and 50 respectively.

Series [2] deals with BNL-CL2 cells. Briefly: In vitro transfection of nanoparticles of DNA, luciferase assay. The series is classed as cell-based, Murine. To be noted: 0.5 μg of DNA per well (FIG. 6: N/P=10). Here is the method:
(§1) Murine embryo cells BNL-CL2 are grown in 96-well plates until a density of 2×10^4 cells/well in a DMEM culture medium (Dulbelcco's Modified Eagle Medium, Gibco-BRL) containing 10% foetal calf serum (SVF; Sigma) at 37° C. in a humid atmosphere with a proportion of 5% CO2/95% air.
(§2) The complexes between compound no. 8, no. 16 or polyethyleneimine (PEI), and plasmid pTG11236 are diluted in 100 μl of DMEM so as to obtain 0.5 μg of DNA in the well.
(§3) The culture medium is removed and replaced by 100 μl of solution of nanoparticle complex/DNA in DMEM. After 4 hrs and 24 hrs, 50 and 100 μL of DMEM containing 30% and 10% of FCS, respectively, are added. After 48 hrs, the transfection is stopped, the culture medium is removed and the cells are washed with PBS (2×100 μL), then lysed with 50 μL of lysis buffer (Promega, Charbonnières, France). The lysates are frozen at −32° C. until the luciferase and protein assay.
The luciferase assay is used to assess the efficacy of transfection. This assay is based on a chimioluminescence reaction whose principle is based on oxydation by luciferase of its substrate (luciferine) with concomitant production of a photon. The activity of the luciferase is measured with a Biolumat LB96P WMP100 apparatus (BERTHOLD) for 10 sec after the injection of 50 μl of reagent containing luciferine (Prmèga assay kit) in each well containing 10 μl of cell extract. […]

Series [3] has as its system BNL-CL2 cells. In words: Cell viability after transfection (BCA protein assay). To be noted: for cell viability compared with PEI/DNA polyplexes at the same N/P ratios: N/P ratios>10; for cell viability after transfection: complexes with pTG11236, N/P 5 to 50, 0.5 μg plasmid/well. The format is cell-based, Murine. Here is the method: as §1, §2, §3
The protein assay is based on the BCA test (Pierce). The protein assay is carried out on 15 μl of cell lysate to which are added 300 μl of Pierce reagent (BCA Protein Assay Reagent). It consists of a colorimetric assay which is carried out with UV/visible MRX spectrophotometry (DYNEX Technologies). For each assay, a standard series is carried out with BSA (Bovine Serum Albumin, BIO-RAD), of 0 to 30 μg per well. The reading is taken at 570 nm, after 30 […] at ambient temperature. With this standard BSA series, the OD may be expressed in mg of protein/well.
The ratio of the quantities of proteins corresponding to the transfected and non transfected (100% cell viability) cells is used to assess the cell viability of the complexes (expressed in %).
All of the formulations are tested at least 3 times. The results obtained were processed using STATGRAPHICS Plus5.1 software (trade mark). Anova analysis of variance is carried out on the values of the efficacies of transfection (LoglO(fg luciferase/mg protein)) and on the cell viability. It is possible to analyse the impact (on the transfection or cell viability) of the variation of one or several factors by applying a mono- or multifactorial analysis of variance, respectively. The method used to compare the means is the HSD (honestly significant difference) intervals by Tukey.

Consider `CCCCCC(=O)O[C@@H]1[C@@H](OC(=O)CCCCC)[C@H]2O[C@H]3[C@H](OC(=O)CCCCC)[C@@H](OC(=O)CCCCC)[C@@H](O[C@H]4[C@H](OC(=O)CCCCC)[C@@H](OC(=O)CCCCC)[C@@H](O[C@H]5[C@H](OC(=O)CCCCC)[C@@H](OC(=O)CCCCC)[C@@H](O[C@H]6[C@H](OC(=O)CCCCC)[C@@H](OC(=O)CCCCC)[C@@H](O[C@H]7[C@H](OC(=O)CCCCC)[C@@H](OC(=O)CCCCC)[C@@H](O[C@H]8[C@H](OC(=O)CCCCC)[C@@H](OC(=O)CCCCC)[C@@H](O[C@@H]1[C@@H](CSCCNC(=S)NCCN)O2)O[C@@H]8CSCCNC(=S)NCCN)O[C@@H]7CSCCNC(=S)NCCN)O[C@@H]6CSCCNC(=S)NCCN)O[C@@H]5CSCCNC(=S)NCCN)O[C@@H]4CSCCNC(=S)NCCN)O[C@@H]3CSCCNC(=S)NCCN.Cl.Cl.Cl.Cl.Cl.Cl.Cl` [compound no. 16, heptakis[6-desoxy-6-(2-(N′-(2-aminoethyl)thioureido)ethylthio)-2,3-di-O-hexanoyl]cyclomaltoheptaose heptachlorhydrate], for which the “accessibility of the DNA at the intercalation by ethidium bromide” value in series [1] is given as “no longer accessible”. Besides, in series [2], the “levels of transfection compared with N/P 10 polyplexes formulated with PEI” value is “equal” and the “levels of transfection, times higher than those with naked DNA” value is listed as “about 10,000 times”. In series [3], the “cell viability compared with PEI/DNA polyplexes at the same N/P ratios” value is given as “significantly higher” and the “cell viability after transfection” value is listed as “excellent”.

Take “heptakis[6-(2-aminoethylthio)-6-desoxy-2,3-di-O-hexanoyl]cyclomaltoheptaose heptachlorhydrate [compound no. 8]”: the “accessibility of the DNA at the intercalation by ethidium bromide” value in series [1] was “partially accessible”. The “complexation of the DNA (absence of DNA bands)” value in series [1] (N/P ratio≧10, plasmid pTG11236) is given as “total complexation”. Also, in series [3], the “cell viability compared with PEI/DNA polyplexes at the same N/P ratios” value was “significantly higher” and the “cell viability after transfection” value was “excellent”.

(Values after patent US20100093662A1, “NOVEL AMPHIPHILIC CYCLODEXTRIN DERIVATIVES” (CENTRE NATIONAL DE LA RECHERCHE SCIENTIFIQUE-CNRS-, priority 2006, published 2010).)
